ChEMBL document CHEMBL1123199, “Synthesis and structure-activity relationships of naftifine-related allylamine antimycotics” (1986)
Values after ≈ are worked out from the molar mass of the structure shown.

Key:
Aspergillus fumigatus [1] = assay: Antifungal activity was measured against Aspergillus fumigatus; assay type: functional
Candida parapsilosis = assay: Antifungal activity against Candida parapsilosis.; assay type: functional; settings: Lodderomyces parapsilosis
Microsporum canis = assay: Antifungal activity against Microsporum canis; assay type: functional
Sporothrix schenckii = assay: Antifungal activity measured against Sporothrix schenck ii.; assay type: functional
Trichophyton benhamiae [2] = assay: Antifungal activity measured against Trichophyton mentagrophytes; assay type: functional, Arthroderma benhamiae
Aspergillus fumigatus [3] = assay: Antifungal activity measured against Aspergillus fumigatus; assay type: functional
Epidermophyton floccosum = assay: Antifungal activity against Epidermophyton floccosum.; assay type: functional
Trichophyton benhamiae [4] = assay: ~ Antifungal activity was measured against Trichophyton mentagrophytes.; assay type: functional, Arthroderma benhamiae

Row | MIC (Aspergillus fumigatus [1]) [µg/mL] | MIC (Candida parapsilosis) [µg/mL] | MIC (Microsporum canis) [µg/mL] | MIC (Sporothrix schenckii) [µg/mL] | MIC (Trichophyton benhamiae [2]) [µg/mL] | MIC (Aspergillus fumigatus [3]) [µg/mL] | MIC (Epidermophyton floccosum) [µg/mL] | MIC (Trichophyton benhamiae [4]) [µg/mL] | SMILES
1 | > 100 | > 100 | 50 (≈ 173 µM) | > 100 | 12.5 (≈ 43.2 µM) | – | – | – | ON(C/C=C/c1ccccc1)Cc1cccc2ccccc12
2 | – | > 100 | < 1.6 | 25 (≈ 77.7 µM) | – | > 100 | 3.1 (≈ 9.63 µM) | < 1.6 | CN(C/C=C/c1ccccc1Cl)Cc1cccc2ccccc12
